Structures are written as SMILES. Some results are limits rather than exact numbers.

The target in this assay is T1, Human CaV2.2 channels (Homo sapiens, UniProt Q00975).
T1 construct: expressed in transfected cells; host or cells: HEK293
T1 sequence (Q00975 whole entry): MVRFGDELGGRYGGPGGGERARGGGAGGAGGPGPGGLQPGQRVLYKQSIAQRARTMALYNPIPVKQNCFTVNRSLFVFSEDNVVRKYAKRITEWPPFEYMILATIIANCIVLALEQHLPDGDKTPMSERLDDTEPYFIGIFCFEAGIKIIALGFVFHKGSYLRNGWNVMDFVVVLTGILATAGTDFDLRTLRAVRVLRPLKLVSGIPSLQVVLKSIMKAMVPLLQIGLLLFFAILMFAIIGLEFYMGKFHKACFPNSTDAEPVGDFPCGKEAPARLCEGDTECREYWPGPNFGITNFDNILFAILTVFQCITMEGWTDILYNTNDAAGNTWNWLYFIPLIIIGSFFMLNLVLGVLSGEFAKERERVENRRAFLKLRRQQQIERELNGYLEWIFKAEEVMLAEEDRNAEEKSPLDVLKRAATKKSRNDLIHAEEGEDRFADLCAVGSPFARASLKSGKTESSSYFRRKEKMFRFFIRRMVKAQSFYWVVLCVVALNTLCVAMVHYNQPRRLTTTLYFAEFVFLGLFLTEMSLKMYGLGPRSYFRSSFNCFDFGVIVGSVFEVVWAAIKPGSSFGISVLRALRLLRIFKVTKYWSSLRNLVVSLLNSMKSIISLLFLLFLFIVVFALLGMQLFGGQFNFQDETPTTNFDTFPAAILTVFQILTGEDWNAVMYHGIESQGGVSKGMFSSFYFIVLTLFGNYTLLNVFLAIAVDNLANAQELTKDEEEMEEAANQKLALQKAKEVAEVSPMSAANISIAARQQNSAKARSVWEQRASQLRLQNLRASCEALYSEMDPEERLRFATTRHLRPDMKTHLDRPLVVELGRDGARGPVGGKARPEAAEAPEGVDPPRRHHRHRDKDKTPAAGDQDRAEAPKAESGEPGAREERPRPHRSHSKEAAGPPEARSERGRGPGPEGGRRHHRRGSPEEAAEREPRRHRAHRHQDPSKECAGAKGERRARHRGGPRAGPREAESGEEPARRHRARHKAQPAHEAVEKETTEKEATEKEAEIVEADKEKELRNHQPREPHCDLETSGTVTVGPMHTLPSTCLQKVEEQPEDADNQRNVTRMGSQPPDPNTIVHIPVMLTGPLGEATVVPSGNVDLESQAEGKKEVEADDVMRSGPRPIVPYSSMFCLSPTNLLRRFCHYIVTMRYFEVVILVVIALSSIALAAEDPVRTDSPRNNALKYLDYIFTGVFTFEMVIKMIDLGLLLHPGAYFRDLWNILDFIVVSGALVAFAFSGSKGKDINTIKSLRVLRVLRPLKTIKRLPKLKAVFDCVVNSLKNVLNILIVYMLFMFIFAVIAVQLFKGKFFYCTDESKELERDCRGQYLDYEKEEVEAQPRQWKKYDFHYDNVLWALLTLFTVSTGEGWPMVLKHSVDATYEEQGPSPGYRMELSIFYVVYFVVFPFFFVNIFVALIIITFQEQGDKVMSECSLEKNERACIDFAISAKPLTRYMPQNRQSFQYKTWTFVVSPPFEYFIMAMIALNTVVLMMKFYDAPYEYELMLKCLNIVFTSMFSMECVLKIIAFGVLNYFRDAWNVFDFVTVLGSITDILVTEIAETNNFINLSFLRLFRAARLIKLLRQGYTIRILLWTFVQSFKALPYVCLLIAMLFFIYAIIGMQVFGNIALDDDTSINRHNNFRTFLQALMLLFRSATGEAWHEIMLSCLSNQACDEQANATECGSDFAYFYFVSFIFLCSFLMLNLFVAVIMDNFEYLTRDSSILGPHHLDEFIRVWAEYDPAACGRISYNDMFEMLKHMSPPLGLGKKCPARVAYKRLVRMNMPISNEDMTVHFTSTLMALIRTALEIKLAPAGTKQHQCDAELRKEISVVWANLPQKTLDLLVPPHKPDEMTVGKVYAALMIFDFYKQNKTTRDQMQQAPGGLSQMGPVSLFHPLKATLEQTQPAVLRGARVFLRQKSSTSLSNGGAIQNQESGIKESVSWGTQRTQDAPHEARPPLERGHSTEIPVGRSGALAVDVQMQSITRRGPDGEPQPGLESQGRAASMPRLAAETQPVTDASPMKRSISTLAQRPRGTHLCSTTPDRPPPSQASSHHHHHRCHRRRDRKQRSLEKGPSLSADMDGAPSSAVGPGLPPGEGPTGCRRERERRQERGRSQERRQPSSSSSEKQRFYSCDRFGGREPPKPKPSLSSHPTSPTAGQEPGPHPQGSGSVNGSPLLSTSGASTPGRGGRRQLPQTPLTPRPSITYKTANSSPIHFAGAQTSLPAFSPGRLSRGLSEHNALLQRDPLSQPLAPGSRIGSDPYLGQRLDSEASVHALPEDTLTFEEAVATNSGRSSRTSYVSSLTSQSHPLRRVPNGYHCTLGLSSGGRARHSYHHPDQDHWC
T1 sequence (P54284 whole entry, further chain): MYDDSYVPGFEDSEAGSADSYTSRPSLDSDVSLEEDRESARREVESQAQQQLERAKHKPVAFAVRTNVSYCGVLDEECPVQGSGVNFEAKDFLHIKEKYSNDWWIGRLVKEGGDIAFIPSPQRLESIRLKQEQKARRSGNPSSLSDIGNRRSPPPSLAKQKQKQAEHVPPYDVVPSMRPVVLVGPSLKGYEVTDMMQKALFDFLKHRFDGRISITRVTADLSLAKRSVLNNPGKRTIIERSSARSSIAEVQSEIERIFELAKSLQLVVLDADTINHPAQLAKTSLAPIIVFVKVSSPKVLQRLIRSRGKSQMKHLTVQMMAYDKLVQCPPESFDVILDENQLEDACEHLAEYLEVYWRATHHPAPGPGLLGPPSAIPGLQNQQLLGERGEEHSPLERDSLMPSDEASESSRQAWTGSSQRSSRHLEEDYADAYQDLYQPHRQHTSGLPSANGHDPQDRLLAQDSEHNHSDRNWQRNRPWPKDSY
T1 sequence (P54289 25-1103, further chain): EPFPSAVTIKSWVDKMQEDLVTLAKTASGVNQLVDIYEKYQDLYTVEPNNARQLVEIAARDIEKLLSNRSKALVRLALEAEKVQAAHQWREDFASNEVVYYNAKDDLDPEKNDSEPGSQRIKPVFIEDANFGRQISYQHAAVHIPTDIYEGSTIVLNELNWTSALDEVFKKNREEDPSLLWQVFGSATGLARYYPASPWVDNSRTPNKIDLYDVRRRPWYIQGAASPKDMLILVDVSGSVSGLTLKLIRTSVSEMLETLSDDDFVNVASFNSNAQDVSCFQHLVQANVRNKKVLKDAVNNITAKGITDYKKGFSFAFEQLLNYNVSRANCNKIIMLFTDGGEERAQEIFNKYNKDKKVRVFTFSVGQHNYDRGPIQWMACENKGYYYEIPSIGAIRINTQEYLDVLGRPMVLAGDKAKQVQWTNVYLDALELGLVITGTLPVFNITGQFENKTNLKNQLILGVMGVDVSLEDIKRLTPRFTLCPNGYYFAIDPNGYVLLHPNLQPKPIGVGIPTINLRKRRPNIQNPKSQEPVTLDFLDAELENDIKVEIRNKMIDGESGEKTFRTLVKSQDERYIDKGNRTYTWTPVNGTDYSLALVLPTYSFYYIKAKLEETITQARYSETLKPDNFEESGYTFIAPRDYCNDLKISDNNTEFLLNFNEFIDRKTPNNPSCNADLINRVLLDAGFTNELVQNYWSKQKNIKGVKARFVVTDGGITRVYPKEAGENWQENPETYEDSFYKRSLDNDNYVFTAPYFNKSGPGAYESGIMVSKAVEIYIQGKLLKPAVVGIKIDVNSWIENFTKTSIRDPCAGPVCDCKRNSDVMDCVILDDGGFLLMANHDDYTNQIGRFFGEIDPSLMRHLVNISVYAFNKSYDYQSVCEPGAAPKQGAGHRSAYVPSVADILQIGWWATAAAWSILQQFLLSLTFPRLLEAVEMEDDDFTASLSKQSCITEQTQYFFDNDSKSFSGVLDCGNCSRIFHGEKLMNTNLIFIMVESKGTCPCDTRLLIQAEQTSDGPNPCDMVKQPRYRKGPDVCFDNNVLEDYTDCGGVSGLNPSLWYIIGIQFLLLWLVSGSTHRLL
The assay can be described thus: Fluorescent (FLIPR) assay for CaV2.2 channels using potassium depolarization to induce channel opening. Format: cell-based. The settings on record: 3 μM compound; 30 mM KCl assay buffer (inactivated channel state); HEK293 cells stably expressing human CaV2.2; read-out: Activity Category: %-Inhib (CaV2.2) @3 μM @30 mM KCl. Summed up:
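HEK293 cells stably co-expressing human CaV2.2 with α2δ and β subunits plus Kir2.3, Fluo-4 loaded; compounds preincubated 15 min at 25 °C in 1 mM or 30 mM KCl buffer (inactivated state), pH 7.4. Depolarized by KCl addition; baseline-normalized peak fluorescence (ex 480/em 535 nm) gave inhibition.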
In the case of `CN(CC(C)(C)C)C(=O)c1c(-c2ccc(F)cc2)cc(C(F)(F)F)n1CC1CCCO1` (stereo not shown) [Example 073, N-(2,2-Dimethyl-propyl)-3-(4-fluorophenyl)-N-methyl-1-(tetrahydro-furan-2-yl-methyl)-5-(trifluoromethyl)-1H-pyrrole-2-carboxylic acid amide], the inhibition at 3 µM was in the range of 75 to 95%.
Consider `CN(CC(C)(C)CO)C(=O)c1c(-c2ccc(F)cc2)cc(C(F)(F)F)n1CC1CCCO1` (stereo not shown) [Example 074, 3-(4-Fluorophenyl)-N-(3-hydroxy-2,2-dimethyl-propyl)-N-methyl-1-(tetrahydro-furan-2-yl-methyl)-5-(trifluoromethyl)-1H-pyrrole-2-carboxylic acid amide], for which the inhibition at 3 µM was 75 to 95%.
For the compound `Cc1cc(CN(C)C(=O)c2c(-c3ccc(F)cc3)cc(C(F)(F)F)n2CC2CCCO2)no1` (stereo not shown) [Example 075, 3-(4-Fluorophenyl)-N-methyl-N-[(5-methyl-isoxazol-3-yl)-methyl]-1-(tetrahydro-furan-2-yl-methyl)-5-(trifluoromethyl)-1H-pyrrole-2-carboxylic acid amide], the inhibition at 3 µM lay in the range of 75 to 95%.
Consider `Cc1cnc(CN(C)C(=O)c2c(-c3ccc(F)cc3)cc(C(F)(F)F)n2CC2CCCO2)cn1` (stereo not shown) [Example 077, 3-(4-Fluorophenyl)-N-methyl-N-[(5-methyl-pyrazin-2-yl)-methyl]-1-(tetrahydro-furan-2-yl-methyl)-5-(trifluoromethyl)-1H-pyrrole-2-carboxylic acid amide], for which the inhibition at 3 µM fell in the range of 75 to 95%.
To `CN(CCS(C)(=O)=O)C(=O)c1c(-c2ccc(F)cc2)cc(C(F)(F)F)n1CC1CCCO1` (stereo not shown) [Example 078, 3-(4-Fluorophenyl)-N-methyl-N-(2-methylsulfonyl-ethyl)-1-(tetrahydro-furan-2-yl-methyl)-5-(trifluoromethyl)-1H-pyrrole-2-carboxylic acid amide] belongs 40 to 75%; to `O=C1CN(C(=O)c2c(-c3ccc(F)cc3)cc(C(F)(F)F)n2CC2CCCO2)CCN1` (stereo not shown) [Example 079, 4-[3-(4-Fluorophenyl)-1-(tetrahydro-furan-2-yl-methyl)-5-(trifluoromethyl)-1H-pyrrole-2-carbonyl]-piperazin-2-one], 40 to 75%.
To `CC1(C)CN(C(=O)c2c(-c3ccc(F)cc3)cc(C(F)(F)F)n2CC2CCCO2)CCO1` (stereo not shown) [Example 080, (2,2-Dimethyl-morpholin-4-yl)-[3-(4-fluorophenyl)-1-(tetrahydro-furan-2-yl-methyl)-5-(trifluoromethyl)-1H-pyrrol-2-yl]-methanone] belongs 75 to 95%; to `O=C(c1c(-c2ccc(F)cc2)cc(C(F)(F)F)n1CC1CCCO1)N1CCOCC1` (stereo not shown) [Example 081, [3-(4-Fluorophenyl)-1-(tetrahydro-furan-2-yl-methyl)-5-(trifluoromethyl)-1H-pyrrol-2-yl]-morpholin-4-yl-methanone], 40 to 75%.
To `O=C(NC1CC1)c1c(-c2ccc(F)cc2)cc(C(F)(F)F)n1CC1CCCO1` (stereo not shown) [Example 082, N-Cyclopropyl-3-(4-fluorophenyl)-1-(tetrahydro-furan-2-yl-methyl)-5-(trifluoromethyl)-1H-pyrrole-2-carboxylic acid amide] belongs 40 to 75%; to `CN(CC(C)(C)C)C(=O)c1c(-c2ccc(Cl)cc2)cc(C(F)(F)F)n1CC1CCCO1` (stereo not shown) [Example 083, 3-(4-Chlorophenyl)-N-(2,2-dimethyl-propyl)-N-methyl-1-(tetrahydro-furan-2-yl-methyl)-5-(trifluoromethyl)-1H-pyrrole-2-carboxylic acid amide], 75 to 95%; to `Cc1c(-c2ccc(Cl)cc2)c(C(=O)N2CCOC(C)(C)C2)n(CC2CC2)c1C(F)(F)F` [Example 084, [3-(4-Chlorophenyl)-1-(cyclopropyl-methyl)-4-methyl-5-(trifluoromethyl)-1H-pyrrol-2-yl]-(2,2-dimethyl-morpholin-4-yl)-methanone], > 95%.
Take `Cc1c(-c2ccc(Cl)cc2)c(C(=O)N2CCOC(C)(C)C2)n(CC2CCC2)c1C(F)(F)F` [Example 085, [3-(4-Chlorophenyl)-1-(cyclobutyl-methyl)-4-methyl-5-(trifluoromethyl)-1H-pyrrol-2-yl]-(2,2-dimethyl-morpholin-4-yl)-methanone]: the inhibition at 3 µM fell in the range of 75 to 95%.
In the case of `Cc1c(-c2ccc(Cl)cc2)c(C(=O)N2CCOCC2)n(CC#CC2CC2)c1C(F)(F)F` [Example 086, [3-(4-Chlorophenyl)-1-(3-cyclopropyl-prop-2-ynyl)-4-methyl-5-(trifluoromethyl)-1H-pyrrol-2-yl]-morpholin-4-yl-methanone], the inhibition at 3 µM was > 95%.
To `Cc1c(-c2ccc(Cl)cc2)c(C(=O)N2CCOCC2)n(CC2(C)CC2)c1C(F)(F)F` [Example 087, [3-(4-Chlorophenyl)-4-methyl-1-[(1-methyl-cyclopropyl)-methyl]-5-(trifluoromethyl)-1H-pyrrol-2-yl]-morpholin-4-yl-methanone] belongs > 95%; to `CN(CC(C)(C)C)C(=O)c1c(-c2ccc(Cl)cc2)cc(C(F)(F)F)n1CC1(N)CC1` [Example 088, 1-[(1-Amino-cyclopropyl)-methyl]-3-(4-chlorophenyl)-N-(2,2-dimethyl-propyl)-N-methyl-5-(trifluoromethyl)-1H-pyrrole-2-carboxylic acid amide], 75 to 95%.
To `Cc1c(-c2ccc(Cl)cc2)c(C(=O)N2CCOCC2)n(CC2(O)CC2)c1C(F)(F)F` [Example 089, [3-(4-Chlorophenyl)-1-[(1-hydroxy-cyclopropyl)-methyl]-4-methyl-5-(trifluoromethyl)-1H-pyrrol-2-yl]-morpholin-4-yl-methanone] belongs > 95%; to `CN(CC(C)(C)C)C(=O)c1c(-c2ccc(Cl)cc2)cc(C(F)(F)F)n1CC1(O)CCCC1` [Example 090, 3-(4-Chlorophenyl)-N-(2,2-dimethyl-propyl)-1-[(1-hydroxy-cyclopentyl)-methyl]-N-methyl-5-(trifluoromethyl)-1H-pyrrole-2-carboxylic acid amide], 75 to 95%.
To `CN(CC(C)(C)C)C(=O)c1c(-c2ccc(Cl)cc2)cc(C(F)(F)F)n1CC1CCCN1` (stereo not shown) [Example 091, 3-(4-Chlorophenyl)-N-(2,2-dimethyl-propyl)-N-methyl-1-(pyrrolidin-2-yl-methyl)-5-(trifluoromethyl)-1H-pyrrole-2-carboxylic acid amide] belongs > 95%; to `Cc1c(-c2ccc(Cl)cc2)c(C(=O)N(C)CCS(C)(=O)=O)n(CC2(N)CC2)c1C(F)(F)F` [Example 093, 1-[(1-Amino-cyclopropyl)-methyl]-3-(4-chlorophenyl)-N,4-dimethyl-N-(2-methylsulfonyl-ethyl)-5-(trifluoromethyl)-1H-pyrrole-2-carboxylic acid amide], 75 to 95%; to `Cc1c(-c2ccc(Cl)cc2)c(C(=O)N(C)CCS(C)(=O)=O)n(CC2(O)CCCC2)c1C(F)(F)F` [Example 094, 3-(4-Chlorophenyl)-1-[(1-hydroxy-cyclopentyl)-methyl]-N,4-dimethyl-N-(2-methylsulfonyl-ethyl)-5-(trifluoromethyl)-1H-pyrrole-2-carboxylic acid amide], > 95%.
In the case of `Cc1c(-c2ccc(Cl)cc2)c(C(=O)N2CCOCC2)n(CC2(N)CC2)c1C(F)(F)F` [Example 095, [1-[(1-Amino-cyclopropyl)-methyl]-3-(4-chlorophenyl)-4-methyl-5-(trifluoromethyl)-1H-pyrrol-2-yl]-morpholin-4-yl-methanone], the inhibition at 3 µM lay in the range of 75 to 95%.
To `Cc1c(-c2ccc(Cl)cc2)c(C(=O)N2CCOCC2)n(CC2(O)CCCC2)c1C(F)(F)F` [Example 096, [3-(4-Chlorophenyl)-1-[(1-hydroxy-cyclopentyl)-methyl]-4-methyl-5-(trifluoromethyl)-1H-pyrrol-2-yl]-morpholin-4-yl-methanone] belongs 75 to 95%; to `Cc1c(-c2ccc(Cl)cc2)c(C(=O)N2CCOCC2)n(CC2CCOCC2)c1C(F)(F)F` [Example 097, [3-(4-Chlorophenyl)-4-methyl-1-(tetrahydro-pyran-4-yl-methyl)-5-(trifluoromethyl)-1H-pyrrol-2-yl]-morpholin-4-yl-methanone], > 95%.
Consider `Cc1c(-c2ccc(Cl)cc2)c(C(=O)N2CCOCC2)n(CCN2CC(F)(F)C2)c1C(F)(F)F` [Example 098, [3-(4-Chlorophenyl)-1-[2-(3,3-difluoro-azetidin-1-yl)-ethyl]-4-methyl-5-(trifluoromethyl)-1H-pyrrol-2-yl]-morpholin-4-yl-methanone], for which the inhibition at 3 µM is > 95%.
To `Cc1c(-c2ccc(Cl)cc2)c(C(=O)N2CCOCC2)n(CCS(C)(=O)=O)c1C(F)(F)F` [Example 099, [3-(4-Chlorophenyl)-4-methyl-1-(2-methylsulfonyl-ethyl)-5-(trifluoromethyl)-1H-pyrrol-2-yl]-morpholin-4-yl-methanone] belongs 40 to 75%; to `CN(CC(C)(C)C)C(=O)c1c(-c2ccc(Cl)cc2)cc(C(F)(F)F)n1CC1(C#N)CC1` [Example 100, 3-(4-Chlorophenyl)-1-[(1-cyano-cyclopropyl)-methyl]-N-(2,2-dimethyl-propyl)-N-methyl-5-(trifluoromethyl)-1H-pyrrole-2-carboxylic acid amide], 75 to 95%.
In the case of `Cc1c(-c2ccc(Cl)cc2)c(C(=O)N2CCOC(C)(C)C2)n(C)c1C(F)(F)F` [Example 102, [3-(4-Chlorophenyl)-1,4-dimethyl-5-(trifluoromethyl)-1H-pyrrol-2-yl]-(2,2-dimethyl-morpholin-4-yl)-methanone], the inhibition at 3 µM was in the range of 75 to 95%.
On to `CCn1c(C(=O)N2CCOC(C)(C)C2)c(-c2ccc(Cl)cc2)c(C)c1C(F)(F)F` [Example 103, [3-(4-Chlorophenyl)-1-ethyl-4-methyl-5-(trifluoromethyl)-1H-pyrrol-2-yl]-(2,2-dimethyl-morpholin-4-yl)-methanone], for which the inhibition at 3 µM lay within 75 to 95%.

Source of the values: patent US20160289186A1, “FLUOROMETHYL-SUBSTITUTED PYRROLE CA[…]” (Grunenthal GmbH, priority 2013, published 2016).
